This is an account of results in paper PMC7470138, “Novel heterocyclic hybrids of pyrazole targeting dihydrofolate reductase: design, biological evaluation and in silico studies” (Journal of Enzyme Inhibition and Medicinal Chemistry, 2020).

Values after ≈ are worked out from the molar mass of the structure shown.

Data set [1] has as its system A. fumigatus RCMB 002568. In words: Minimum inhibitory concentration (MIC), antifungal. It is filed as cell-based, Aspergillus fumigates. The following applies: A. fumigatus RCMB 002568, fungi, mean of three values; for MIC: Aspergillus fumigatus, RCMB002568, read-out: MIC (Mean ± SEM).
Method: (§1) Solutions of concentrations (1 µg/mL) of the target compounds were used. […] The diameter of inhibition zone (mm) was measured for the biologically activity using the diffusion technique[35]. […] The different concentrations (triplicate) of each compound were tested and compared with standard drugs.
Data set [2] relates to C. albicans RCMB 005036. In words: Minimum inhibitory concentration (MIC), antifungal. The data set is classed as cell-based. The following applies: Candida albicans, RCMB005036; C. albicans RCMB 005036, fungi; mean of three values; read-out: MIC (Mean ± SEM).
Method: Solutions of concentrations (1 µg/mL) of the target compounds were used. […] The different concentrations (triplicate) of each compound were tested and compared with standard drugs.
Data set [3] deals with E. coli RCMB 010052. The experiment in a line: Minimum inhibitory concentration (MIC), antibacterial. The data set is classed as cell-based. The following applies: Escherichia coli, RCMB010052; E. coli RCMB 010052, Gram-negative; mean of three values; read-out: MIC (Mean ± SEM).
Method: as §1
In data set [4] the test system is P. aeruginosa RCMB 010043. The description is as above. It is filed as cell-based. The following applies: Pseudomonas aeruginosa, RCMB010043; P. aeruginosa RCMB 010043, Gram-negative; mean of three values; read-out: MIC (Mean ± SEM).
Method: as §1
The test system of data set [5] is S. pneumonia RCMB 010010. Described as above. It is filed as cell-based, Streptococcus pneumoniae. The following applies: S. pneumonia RCMB 010010, Gram-positive, mean of three values; for MIC: Streptococcus pneumoniae, RCMB010010, read-out: MIC (Mean ± SEM).
Method: as §1
In data set [6] the test system is B. subtilis RCMB 010067. The data set is described as above. The following applies: Bacillus subtilis, RCMB010067; B. subtilis RCMB 010067, Gram-positive; mean of three values; read-out: MIC (Mean ± SEM). The data set is classed as cell-based.
Method: as §1
The target in data set [7] is T1, dihydrofolate reductase (DHFR) (Homo sapiens, UniProt P00374).
T1 sequence (P00374 1-187): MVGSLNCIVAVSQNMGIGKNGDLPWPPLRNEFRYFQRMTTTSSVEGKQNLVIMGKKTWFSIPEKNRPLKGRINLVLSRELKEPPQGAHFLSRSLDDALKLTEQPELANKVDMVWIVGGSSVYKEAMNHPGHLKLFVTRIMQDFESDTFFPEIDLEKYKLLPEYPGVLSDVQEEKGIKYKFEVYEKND
In words: In vitro enzyme assay on dihydrofolate reductase (DHFR). It is filed as biochemical. The following applies: absorbance at 340 nm, 22 °C, mean of three values, read-out: IC50 (Mean ± SEM) DHFR.

Data set [8] has as its system all tested strains (S. pneumoniae, B. subtilis, P. aeruginosa, E. coli, A. fumigates, C. albicans). The experiment in a line: Antimicrobial sensitivity assay, agar well diffusion (inhibition zone). The following applies: tested bacteria and fungi. The data set is classed as cell-based. For orientation: A growth-free zone around the sample is the usual read-out of agar diffusion tests.
Method: as §1
The screening was done for the in vitro antibacterial activity against Gram-positive Streptococcus pneumoniae and Bacillus subtilis, and Gram-negative Pseudomonas aeruginosa and Escherichia coli, and for the in vitro antifungal activity against Aspergillus fumigates and Candida albicans.

Consider `C[C@@H]1[C@H](O)[C@@H](C)/C=C/C=C/C=C/C=C/C=C/C=C/C=C/[C@H](O[C@@H]2O[C@H](C)[C@@H](O)[C@H](N)[C@@H]2O)C[C@@H]2O[C@](O)(C[C@@H](O)C[C@@H](O)[C@H](O)CC[C@@H](O)C[C@@H](O)CC(=O)O[C@H]1C)C[C@H](O)[C@H]2C(=O)O` [Amphotericin B, reference compound], for which the “MIC (Mean ± SEM)” value in data set [1] was 1.95 µg/mL (≈ 2.11 µM). The MIC came to 1.95 ± 0.3 µg/mL (≈ 2.11 µM) in [1] and 3.9 ± 0.1 µg/mL (≈ 4.22 µM) in [2].
Turning to `O=C(O)c1cn(C2CC2)c2cc(N3CCNCC3)c(F)cc2c1=O` [Ciprofloxacin, reference compound], the MIC worked out at 0.01 ± 0.1 µg/mL (≈ 0.0302 µM) in [3], 0.5 ± 0.05 µg/mL (≈ 1.51 µM) in data set [4], 0.98 ± 0.2 µg/mL (≈ 2.96 µM) in data set [5] and 0.1 ± 0.3 µg/mL (≈ 0.302 µM) in [6]. Further, the “MIC (Mean ± SEM)” value in data set [5] was 0.98 µg/mL (≈ 2.96 µM).
Consider `CC1=NNC(=O)C1=NNc1ccc(S(N)(=O)=O)cc1` [Compound 3a, 4-(2-(3-Methyl-5-oxo-1,5-dihydro-4H-pyrazol-4-ylidene)hydrazineyl)benzenesulfonamide], for which the MIC in data set [3] was 0.98 ± 0.6 µg/mL (≈ 3.48 µM); in data set [1] it was 1.95 ± 0.1 µg/mL (≈ 6.93 µM); in data set [2] it was 3.9 ± 0.3 µg/mL (≈ 13.9 µM); in [4] it was 7.81 ± 0.3 µg/mL (≈ 27.8 µM); in data set [5], 1.95 ± 0.3 µg/mL (≈ 6.93 µM); in [6], 0.98 ± 0.1 µg/mL (≈ 3.48 µM). Besides, the “MIC (Mean ± SEM)” value in data set [1] and in data set [5] was 1.95 µg/mL (≈ 6.93 µM) throughout.
As for `CC1=NNC(=O)C1=NNc1cccc2ccccc12` [Compound 3b, 5-Methyl-4–(2-(naphthalene-1-yl)hydrazineylidene)-2,4-dihydro-3H-pyrazol-3-one], the melting point fell in the range of 189 to 191 °C. The MIC in [3] was determined as 250 ± 0.5 µg/mL (≈ 991 µM). The minimum inhibitory concentration (MIC) in data set [1] amounted to 125 ± 0.2 µg/mL (≈ 495 µM). Also, the MIC in data set [2] was 62.5 ± 0.1 µg/mL (≈ 248 µM). In addition, in [7], the IC50 turned out to be 18.3 ± 0.81 µM. In addition, in data set [4], the MIC was found to be 125 ± 0.3 µg/mL (≈ 495 µM). For the same compound, the MIC in [5] came to 7.81 ± 0.1 µg/mL (≈ 31 µM). In addition, the MIC in data set [6] came out at 15.6 ± 0.5 µg/mL (≈ 62 µM).
As for `Cc1nnc2c(C#N)c(N)n(-c3ccc(S(N)(=O)=O)cc3)nc1-2` [Compound 6a, 4-(6-Amino-7-cyano-3-methyl-5H-pyrazolo[4,3-c]pyridazin-5-yl)benzenesulphonamide], the MIC in data set [3] was found to be 0.49 ± 0.4 µg/mL (≈ 1.49 µM); in data set [1], 0.98 ± 0.2 µg/mL (≈ 2.98 µM); in [2], 3.9 ± 0.03 µg/mL (≈ 11.8 µM); in data set [4], 3.9 ± 0.1 µg/mL (≈ 11.8 µM); in [5] it was 0.98 ± 0.1 µg/mL (≈ 2.98 µM); in data set [6] it was 0.49 ± 0.2 µg/mL (≈ 1.49 µM). Further, the “antimicrobial activity (in words)” value in data set [8] was “highly active”.
For the compound `Cc1n[nH]c2c(C#N)c(=O)n(-c3ccc(S(N)(=O)=O)cc3)nc12` [Compound 6b, 4-(7-Cyano-3-methyl-6-oxo-1,6-dihydro-5H-pyrazolo[4,3-c]pyridazin-5-yl)benzenesulphonamide], the minimum inhibitory concentration (MIC) in [3] came to 0.98 ± 0.1 µg/mL (≈ 2.97 µM); in data set [1], 1.95 ± 0.3 µg/mL (≈ 5.9 µM); in data set [2], 7.81 ± 0.05 µg/mL (≈ 23.6 µM); in data set [4] it was 62.5 ± 0.3 µg/mL (≈ 189 µM); in [5], 1.95 ± 0.4 µg/mL (≈ 5.9 µM); in data set [6], 0.98 ± 0.1 µg/mL (≈ 2.97 µM). Further, the “MIC (Mean ± SEM)” value in data set [1] and in [5] was 1.95 µg/mL (≈ 5.9 µM) throughout. For the same compound, in data set [7], the IC50 was determined as 5.24 ± 0.37 µM. In data set [8], the “antimicrobial activity (in words)” value was “highly active”.
As to `Cc1nnc2c(C#N)c(N)n(-c3cccc4ccccc34)nc1-2` [Compound 6c, 6-Amino-3-methyl-5-(naphthalen-1-yl)-5H-pyrazolo[4,3-c]pyridazine-7-carbonitrile], the melting point lay within 288 to 290 °C. The “antimicrobial activity (in words)” value in data set [8] was “either inactive or less active”.
Taken in the same sequence, the figures for `Cc1n[nH]c2c(C#N)c(=O)n(-c3cccc4ccccc34)nc12` [Compound 6d, 3-Methyl-5-(naphthalen-1-yl)-6-oxo-5,6-dihydro-1H-pyrazolo[4,3-c]pyridazine-7-carbonitrile] were 282 to 284 °C and “either inactive or less active”.
In the case of `Cc1nnc2n(-c3ccccc3)c(=S)n(-c3ccc(S(N)(=O)=O)cc3)nc1-2` [Compound 8a, 4-(7-Methyl-4-phenyl-3-thioxo-3,4-dihydro-2H-pyrazolo[3,4-e][1,2,4]triazin-2-yl)benzenesulphonamide], the melting point fell in the range of 275 to 277 °C. In addition, the minimum inhibitory concentration (MIC) in [3] came to 62.5 ± 0.3 µg/mL (≈ 157 µM). Also, the MIC in [1] was 3.9 ± 0.1 µg/mL (≈ 9.79 µM). The MIC in data set [2] is 62.5 ± 0.5 µg/mL (≈ 157 µM). The IC50 in [7] amounted to 1.36 ± 0.12 µM. Further, the minimal inhibitory concentration (MIC) in [4] was 125 ± 0.3 µg/mL (≈ 314 µM). The MIC in data set [5] is 15.6 ± 0.5 µg/mL (≈ 39.2 µM). Moreover, the minimum inhibitory concentration (MIC) in [6] came to 125 ± 0.4 µg/mL (≈ 314 µM). For the same compound, in [8], the “antimicrobial activity (in words)” value is reported as “highly active”.
In turn, `Cc1nnc2n(-c3ccccc3)c(=S)n(-c3cccc4ccccc34)nc1-2` [Compound 8b, 7-Methyl-2-(naphthalen-1-yl)-4-phenyl-2,4-dihydro-3H-pyrazolo[3,4-e][1,2,4]triazine-3-thione] had a melting point of 257 to 259 °C. For the same compound, the “antimicrobial activity (in words)” value in data set [8] was “either inactive or less active”.
For the compound `Cc1n[nH]c2nn(-c3ccc(S(N)(=O)=O)cc3)nc12` [Compound 9a, 4-(6-Methylpyrazolo[3,4-d][1,2,3]triazol-2(4H)-yl)benzenesulphonamide], the melting point was above 300 °C. In addition, the MIC in data set [3] was 1.95 ± 0.3 µg/mL (≈ 7.01 µM). In addition, the minimum inhibitory concentration (MIC) in data set [1] amounted to 250 ± 0.2 µg/mL (≈ 898 µM). Also, the MIC in [2] turned out to be 7.81 ± 0.2 µg/mL (≈ 28.1 µM). The IC50 in data set [7] came out at 1.45 ± 0.23 µM. The minimal inhibitory concentration (MIC) in data set [4] is 15.6 ± 0.5 µg/mL (≈ 56.2 µM). For the same compound, in data set [5], the minimal inhibitory concentration (MIC) was 3.9 ± 0.3 µg/mL (≈ 14 µM). Besides, the MIC in data set [6] stood at 1.95 ± 0.08 µg/mL (≈ 7.01 µM). In addition, the “antimicrobial activity (in words)” value in data set [8] was “highly active”.
Turning to `Cc1n[nH]c2nn(-c3cccc4ccccc34)nc12` [Compound 9b, 6-Methyl-2-(naphthalen-1-yl)-2,4-dihydropyrazolo[3,4-d][1,2,3]triazole], the melting point is above 300 °C. Also, the “antimicrobial activity (in words)” value in [8] was “either inactive or less active”.

Usually MIC stands for the lowest concentration that inhibits growth of the organism. Usually IC50 stands for the concentration that inhibits the measured activity by half. One may read the melting point as the temperature, or range, at which the solid turns liquid.
